target: T1, S. aureus TrmD (Staphylococcus aureus, UniProt Q2FZ43); assay: nanoSAR direct-to-biology FP displacement screening of crude triazoles; format: binding; details: crude triazole at 1 μM, assuming full conversion; 500 nM TrmD, 10 nM tracer 4; read-out: % displaced tracer
T1 construct: made in house; host or cells: E. coli BL21
T1 sequence (Q2FZ43 1-245): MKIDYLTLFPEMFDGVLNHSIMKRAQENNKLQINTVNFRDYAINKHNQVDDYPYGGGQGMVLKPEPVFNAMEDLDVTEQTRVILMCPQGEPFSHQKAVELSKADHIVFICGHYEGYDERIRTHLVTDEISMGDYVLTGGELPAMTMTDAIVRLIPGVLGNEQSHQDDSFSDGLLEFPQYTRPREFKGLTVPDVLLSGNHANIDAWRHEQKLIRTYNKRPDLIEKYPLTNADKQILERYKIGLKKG
Text: Next, we conducted an S. aureus TrmD-targeting nanoSAR study. For this, alkyne 7 was reacted on a 96 nmol scale with an in-house diversity-oriented azide library (N = 320, mean pairwise Tanimoto similarity = 0.11) designed to cover a large chemical fragment space, generating a panel of 320 crude triazoles ready for FP assay investigation. The composition of the azide library is designed to be chemically diverse in several categories, including physicochemical properties such as polar surface area, lipophilicity, and the number of hydrogen bond donors and acceptors, as well as structural features like the number of aromatic rings (Figure S23). A complete list of chemical structures included in the azide library can be found in Table S4. In situ reaction conditions for CuAAC were adapted from Gehrtz et al., utilizing CuSO4, which is reduced in situ to Cu(I) by sodium ascorbate and stabilized by TBTA. Degassed water and DMSO (1:1) were used as solvents to prevent the oxidation from Cu(I) to Cu(II). For the synthesis of the triazole library, a master mix was prepared, containing all reaction components except the azides. All reactions were started by the addition of the respective azide in 24 μL at a final product concentration of 4 mM (96 nmol). Reaction mixtures were incubated for 16 h at room temperature and under an argon atmosphere in sealed 96-well plates.
For FP assay screening, we used 500 nM of S. aureus TrmD and 10 nM of tracer 4 in a total volume of 40 μL in 96-well plates. We performed control measurements and defined 10 nM of tracer 4 in buffer as 100% displacement and the DMSO control as 0% tracer displacement. […] The results of the FP screening were visualized in a waterfall plot and plate-based heatmaps (Figure , Figure S3).
Fluorescence polarization (FP) assays were performed as follows. The assays for H. influenzae TrmD have been described previously. All assays were conducted in technical triplicate using black 96-well half area plates. For the FP assays, a tracer (20 nM Cy5TPD for E. coli and H. influenzae TrmD, 10 nM tracer 4 for S. aureus TrmD) was mixed with the respective enzyme (2 μM E. coli TrmD, 2 μM H. influenzae TrmD, 500 nM S. aureus TrmD) in buffer (E. coli and H. influenzae TrmD: 50 mM HEPES, 500 mM NaCl, 5% Glycerol, pH 7.5, S. aureus TrmD: 40 mM Tris HCl, 100 mM NaCl, 10 mM MgCl2, 5% Glycerol, pH 7.5). The compounds were added in varying concentrations for K D-value determination. […] The Z-factor for tracer 4 was determined by measuring 48 replicates of the free tracer (positive controls, PC) and 48 replicates of a mixture of enzyme and tracer (negative controls, NC). The Z-factor is defined in terms of the means (μ) and standard deviations (σ) of the positive and negative controls and calculated as Z = 1–(3*(σnc + σpc)/(μnc–μpc)). […] Polarization values (mP) were determined from polarization-specific parallel and orthogonal fluorescence intensities. K D-values were calculated in GraphPad Prism 8.0.1 using the four-parameter Hill equation: y(% tracer bound) = bottom + ([ligand]-slope) × (top–bottom)/([ligand]-slope + K Dslope).
A commercial azide diversity library (Enamine) containing 320 azides at a concentration of 100 mM in DMSO in a 96-well tube rack was employed for this nanoSAR study. For the reaction of the azides with alkyne 7 via CuAAC, a master mix was prepared. […] The solvents were degassed with argon to avoid oxidation of the copper(I) during the reaction. To each well of a 96-well PCR plate (Applied Biosystems MicroAmp) were added 23 μL of the master mix and 1 μL of the 100 mM azide stock. The final concentrations in the Mastermix were: 8.7 mM sodium ascorbate (8.3 mM in reaction well), 1.1 mM TBTA (1.0 mM in reaction well), 4.3 mM 7 (4.1 mM in reaction well), 1.3 mM CuSO4×5 H2O (1.2 mM in reaction well).

SMILES | inhibition at 1 µM [%]
O=c1[nH]cnc2[nH]cc(-c3cn(C[C@@H]4CCCC4(F)F)nn3)c12 [Compound 01F12, F[C@@]1(F)[C@H](CN2N=NC(C=3C=4C(=O)NC=NC4NC3)=C2)CCC1] | 79
NS(=O)(=O)c1ccccc1-n1cc(-c2c[nH]c3nc[nH]c(=O)c23)nn1 [Compound 01G01, S(=O)(=O)(N)c1c(N2N=NC(C=3C=4C(=O)NC=NC4NC3)=C2)cccc1] | 42
CCc1nc(C)c(Cn2cc(-c3c[nH]c4nc[nH]c(=O)c34)nn2)o1 [Compound 01G02, O=C1NC=NC=2NC=C(C=3N=NN(C3)CC=4OC(=NC4C)CC)C12] | 71
CC(C)CN1CCO[C@H](Cn2cc(-c3c[nH]c4nc[nH]c(=O)c34)nn2)C1 [Compound 01G03, O=C1NC=NC=2NC=C(C=3N=NN(C3)C[C@H]4OCC[N@H+](C4)CC(C)C)C12] | 46
O=c1[nH]cnc2[nH]cc(-c3cn(-c4ccc5c(c4)CNCC5)nn3)c12 [Compound 01G04, O=C1NC=NC=2NC=C(C=3N=NN(c4cc5c(cc4)CC[NH2+]C5)C3)C12] | 33
O=c1[nH]cnc2[nH]cc(-c3cn(CCCO)nn3)c12 [Compound 01G05, O=C1NC=NC=2NC=C(C=3N=NN(C3)CCCO)C12] | 32
O=c1[nH]cnc2[nH]cc(-c3cn(Cc4cc(C(F)F)on4)nn3)c12 [Compound 01G06, FC(F)C=1ON=C(C1)CN2N=NC(C=3C=4C(=O)NC=NC4NC3)=C2] | 38
O=C(c1ccco1)n1cc(-c2c[nH]c3nc[nH]c(=O)c23)nn1 [Compound 01G07, O=C(N1N=NC(C=2C=3C(=O)NC=NC3NC2)=C1)C=4OC=CC4] | 28
COC(=O)c1ccc(Cn2cc(-c3c[nH]c4nc[nH]c(=O)c34)nn2)o1 [Compound 01G08, O=C(OC)C=1OC(=CC1)CN2N=NC(C=3C=4C(=O)NC=NC4NC3)=C2] | 44
O=c1[nH]cnc2[nH]cc(-c3cn(-c4ccc(O)cc4)nn3)c12 [Compound 01G09, O=C1NC=NC=2NC=C(C=3N=NN(c4ccc(O)cc4)C3)C12] | 23
O=c1[nH]cnc2[nH]cc(-c3cn([C@@H]4C[C@H]5CC[C@@H](C4)N5)nn3)c12 [Compound 01G10, O=C1NC=NC=2NC=C(C=3N=NN(C3)[C@@H]4C[C@@H]5[NH2+][C@H](C4)CC5)C12] | 44
C[C@H](c1ccc(F)cc1Cl)n1cc(-c2c[nH]c3nc[nH]c(=O)c23)nn1 [Compound 01G11, Clc1c(ccc(F)c1)[C@H](N2N=NC(C=3C=4C(=O)NC=NC4NC3)=C2)C] | 56
CS(=O)(=O)NC(=O)Cn1cc(-c2c[nH]c3nc[nH]c(=O)c23)nn1 [Compound 01G12, S(=O)(=O)(NC(=O)CN1N=NC(C=2C=3C(=O)NC=NC3NC2)=C1)C] | 27
CC(F)(F)c1cccc(Cn2cc(-c3c[nH]c4nc[nH]c(=O)c34)nn2)n1 [Compound 01H01, FC(F)(c1nc(ccc1)CN2N=NC(C=3C=4C(=O)NC=NC4NC3)=C2)C] | 63
CC1(Cn2cc(-c3c[nH]c4nc[nH]c(=O)c34)nn2)COC1 [Compound 01H02, O=C1NC=NC=2NC=C(C=3N=NN(C3)CC4(COC4)C)C12] | 58
Cc1ccc(Cn2cc(-c3c[nH]c4nc[nH]c(=O)c34)nn2)o1 [Compound 01H03, O=C1NC=NC=2NC=C(C=3N=NN(C3)CC=4OC(=CC4)C)C12] | 33
O=c1[nH]cnc2[nH]cc(-c3cn(Cc4cc(C(F)(F)F)on4)nn3)c12 [Compound 01H04, FC(F)(F)C=1ON=C(C1)CN2N=NC(C=3C=4C(=O)NC=NC4NC3)=C2] | 22

SMILES | inhibition at 1 µM [%]
O=C1c2ccccc2C(=O)N1CCn1cc(-c2c[nH]c3nc[nH]c(=O)c23)nn1 [Compound 01H05, O=C1N(C(=O)c2c1cccc2)CCN3N=NC(C=4C=5C(=O)NC=NC5NC4)=C3] | 13
Cc1nc2cc(-n3cc(-c4c[nH]c5nc[nH]c(=O)c45)nn3)ccc2s1 [Compound 01H06, S1c2c(N=C1C)cc(N3N=NC(C=4C=5C(=O)NC=NC5NC4)=C3)cc2] | 26
O=c1[nH]cnc2[nH]cc(-c3cn(CCOC4CCSCC4)nn3)c12 [Compound 01H07, S1CCC(OCCN2N=NC(C=3C=4C(=O)NC=NC4NC3)=C2)CC1] | 54
O=C1CC[C@@H](N2Cc3cc(-n4cc(-c5c[nH]c6nc[nH]c(=O)c56)nn4)ccc3C2=O)C(=O)N1 [Compound 01H08, O=C1N([C@H]2C(=O)NC(=O)CC2)Cc3c1ccc(N4N=NC(C=5C=6C(=O)NC=NC6NC5)=C4)c3] | 23
CCN(CC)CCn1cc(-c2c[nH]c3nc[nH]c(=O)c23)nn1 [Compound 01H09, O=C1NC=NC=2NC=C(C=3N=NN(C3)CC[NH+](CC)CC)C12] | 27
O=c1[nH]cnc2[nH]cc(-c3cn(-c4cc(F)cc(Cl)c4)nn3)c12 [Compound 01H10, Clc1cc(F)cc(N2N=NC(C=3C=4C(=O)NC=NC4NC3)=C2)c1] | 12
O=c1[nH]cnc2[nH]cc(-c3cn(CCN4CCC(O)CC4)nn3)c12 [Compound 01H11, O=C1NC=NC=2NC=C(C=3N=NN(C3)CC[N@H+]4CC[C@H](O)CC4)C12] | 38
CCOP(=O)(CCCn1cc(-c2c[nH]c3nc[nH]c(=O)c23)nn1)OCC [Compound 01H12, P(=O)(OCC)(OCC)CCCN1N=NC(C=2C=3C(=O)NC=NC3NC2)=C1] | 33
COc1ccnc(-n2cc(-c3c[nH]c4nc[nH]c(=O)c34)nn2)n1 [Compound 02A01, O=C1NC=NC=2NC=C(C=3N=NN(c4nc(OC)ccn4)C3)C12] | 19
NC[C@H]1CCC[C@@H](Cn2cc(-c3c[nH]c4nc[nH]c(=O)c34)nn2)C1 [Compound 02A02, O=C1NC=NC=2NC=C(C=3N=NN(C3)C[C@H]4C[C@@H](C[NH3+])CCC4)C12] | 31
CC(C)CSCCCn1cc(-c2c[nH]c3nc[nH]c(=O)c23)nn1 [Compound 02A03, S(CC(C)C)CCCN1N=NC(C=2C=3C(=O)NC=NC3NC2)=C1] | 35
COc1ccc(C(F)(F)F)cc1-n1cc(-c2c[nH]c3nc[nH]c(=O)c23)nn1 [Compound 02A04, FC(F)(F)c1cc(N2N=NC(C=3C=4C(=O)NC=NC4NC3)=C2)c(OC)cc1] | 20
O=c1[nH]cnc2[nH]cc(-c3cn(-c4cccc5cn[nH]c45)nn3)c12 [Compound 02A05, O=C1NC=NC=2NC=C(C=3N=NN(c4c5NN=Cc5ccc4)C3)C12] | 1.22
O=c1[nH]cnc2[nH]cc(-c3cn(S(=O)(=O)c4ccc5c(c4)CCO5)nn3)c12 [Compound 02A06, O=S(C1=CC2=C(OCC2)C=C1)(N3N=NC(C4=CNC(N=CN5)=C4C5=O)=C3)=O] | -1.83
O=c1[nH]cnc2[nH]cc(-c3cn(C[C@H]4COc5ccccc5O4)nn3)c12 [Compound 02A07, O=C1NC=NC=2NC=C(C=3N=NN(C3)C[C@@H]4Oc5c(OC4)cccc5)C12] | 81
O=c1[nH]cnc2[nH]cc(-c3cn(C4CCCCC4)nn3)c12 [Compound 02A08, O=C1NC=NC=2NC=C(C=3N=NN(C3)C4CCCCC4)C12] | 11
O=c1[nH]cnc2[nH]cc(-c3cn(Cc4cc(=O)n5nccc5[nH]4)nn3)c12 [Compound 02A09, O=C1N2N=CC=C2NC(=C1)CN3N=NC(C=4C=5C(=O)NC=NC5NC4)=C3] | 12

From PMC12751012, “Nanoscale Direct-to-Biology Optimization and Structural Insights into Selective S. aureus TrmD Inhibitors” (Journal of Medicinal Chemistry, 2025)
